Reference: patent US20070270501A1, “Medicaments for Treating Barrett's Eesophagus” (Medical Research Council, priority 2004, published 2007)
pKd: −log10 of the molar value. “Also recorded” adds a separate entry of the source.

What was measured:
RAR = conditions: cited from earlier work
[1] = test system: Barrett's oesophagus biopsies; assay: Ex vivo organ culture of Barrett's oesophagus biopsies with citral; format: cell-based, human
[2] = test system: CYP26A1 in squamous cell line (NES); assay: RT-PCR of CYP26A1 expression in squamous cells; format: cell-based; conditions: squamous cells / normal squamous epithelium
Method: Expression of CYP26A1 in Barrett's (BAR, Qhtert) and squamous cell line (NES) is examined by RT-PCR. […] The control when nil is added is denoted by N. The LRAT is the enzyme for retinyl ester formation from excessive retinol.

RARs = conditions: pan-RAR antagonist; read-out: Kd for binding to RARs; cited from earlier work
[3] = test system: squamous oesophageal biopsies; assay: Ex vivo organ culture of squamous oesophageal biopsies with retinoic acid
[4] = test system: retinoid X receptor (RXR); conditions: cited from earlier work
[5] = citral transformed tissue compared with native counterpart
[6] = retinoic acid transformed tissue compared with native counterpart

Compound: CC1(C)CCC(C)(C)c2cc3c(cc21)CCc1c(-c2ccc(C(=O)O)cc2)nn(Cc2cccnc2)c1-3 [compound 55, 4-[4,5,7,8,9,10-hexahydro-7,7,10,10-tetramethyl-1-(3-pyridylmethyl)anthra[2,1-d]pyrazol-3-yl]benzoic acid]
- effectiveness of RAR antagonism (RAR): most effective

Compound: CC1(C)CCC(C)(C)c2cc3c(cc21)SCc1c(-c2ccc(C(=O)O)cc2)cn(Cc2cccnc2)c1-3 [compound 40, 4-[4,5,7,8,9,10-hexahydro-7,7,10,10-tetramethyl-1-(3-pyridylmethyl)-5-thiaanthral[1,2-b]pyrrol-3-yl]benzoic acid]
- effectiveness of RAR antagonism (RAR): most effective

Compound: CC(C)=CCCC(C)=CC=O [citral, 3,7-dimethyl-2,6-octadienal]
- Barrett's explants with squamous phenotype ([1]; after 48 h citral in culture, 5/10 explants): 50%
- BrdU incorporation [1, 5]: lack of BrdU incorporation
- Ki-67 staining [1, 5]: reduced Ki-67 staining
- cytokeratin expression (immunohistochemistry) ([1]; citral treated Barrett's explants, 48 h): expression of CK13 and CK14, but not CK8/18
- CYP26A1 expression / regulation [2]: depression of CYP26A1 activity; also recorded: down-regulated

Compound: CCc1ccc(C2=CC(C)(C)Sc3ccc(C#Cc4ccc(C(=O)O)cc4)cc32)cc1 [AGN194310]
- pKd (RARs): 8.60

Compound: CC1=C(/C=C/C(C)=C/C=C/C(C)=C/C(=O)O)C(C)(C)CCC1 [retinoic acid, all-trans retinoic acid]
- CYP26A1 expression / regulation [2]: not induced
- squamous tissue with glandular phenotype (villiform surface and mucosal glands) ([3]; after 48 hours retinoic acid in culture, 8/31 explants): 26%
- epithelial markers by RT-PCR ([3]; full thickness squamous epithelial biopsy (NE)): induced the glandular epithelial markers CK 8/18 and 7 with reduction of the squamous epithelial CK13
- cytokeratin expression (immunohistochemistry) ([3]; retinoic acid induced glandular tissue, 48 hours): expresses cytokeratins CK8/18 and CK7 but not CK13
- BrdU incorporation [3, 6]: lack of BrdU incorporation
- Ki-67 staining [3, 6]: reduced Ki-67 staining
- p21 expression ([3]; retinoic acid treated squamous tissue): enhanced p21 expression
- villin (immunohistochemistry) ([3]; retinoic acid treated tissue): strongly induced

Compound: CC1=C(/C=C/C(C)=C/C=C/C(C)=C/CO)C(C)(C)CCC1 [retinol]
- CYP26A1 expression / regulation [2]: not induced

Compound: CCCN1c2ccccc2N=C(c2ccc(C(=O)O)cc2)c2cc3c(cc21)C(C)(C)CCC3(C)C [HX603]
- RXR antagonistic activity [4]: selective antagonistic activity

Compound: CC1(C)CCC(C)(C)c2cc3c(cc21)CCc1c(-c2ccc(C(=O)O)cc2)cn(Cc2cccnc2)c1-3 [compound 31, 4-[4,5,7,8,9,10-hexahydro-7,7,10,-10-tetramethyl-1-(3-pyridylmethyl)anthra[1,2-b]pyrrol-3-yl]benzoic acid]
- effectiveness of RAR antagonism (RAR): most effective
